The target in one series is BACE (Homo sapiens, UniProt P56817). Description: BACE EC50 (enzyme inhibition, Table on oral bioavailability). Format: biochemical.
Series [1] can be described thus: Oral bioavailability in the male Sprague-Dawley rat (IV and PO). The class given is in vivo. As to conditions: plasma, 10 mg/kg. The procedure:
The invention encompasses compounds of formula (I) that are orally bioavailable. Generally, oral bioavailability is defined as the fraction of orally administered dose reaching systemic circulation. Oral bioavailability can be determined following both an intravenous (IV) and oral (PO) administration of a test compound.
Oral bioavailability was determined in the male Sprague-Dawley rat following both IV and PO administration of test compound. Two month-old male rats (250-300 g) were surgically implanted with polyethylene (PE-50) cannula in the jugular vein while under isoflurane anesthesia the day before the in-life phase. Animals were fasted overnight with water ad libitum, then dosed the next day. The dosing regime. consisted of either a 5 mg/kg (2.5 mL/kg) IV dose (N=3) administered to the jugular vein cannula, then flushed with saline, or a 10 mg/kg (5 mL/kg) PO dose (N=3) by esophageal gavage. Compounds were formulated with 10% Solutol in 5% dextrose at 2 mg/mL. Subsequent to dosing, blood was collected at 0.016 (IV only), 0.083, 0.25, 0.5, 1, 3, 6, 9, and 24 h post administration, and heparinized plasma was recovered following centrifugation.
Compounds were extracted from samples following precipitation of the plasma proteins by methanol. The resulting supernatants were evaporated to dryness and reconstituted with chromatographic mobile phase (35% acetonitrile in 0.1% formic acid) and injected onto a reverse phase C18 column (2×50 mm, 5 μm, BDS Hypersil). Detection was facilitated with a multi-reaction-monitoring experiment on a tandem triple quadrupole mass spectrometer (LC/MS/MS) following electrospray ionization. Experimental samples were compared to calibration curves prepared in parallel with aged match rat plasma and quantitated with a weighted 1/x linear regression. The lower limit of quantization (LOQ) for the assay was typically 0.5 ng/mL.
Oral bioavailability (% F) is calculated from the dose normalized ratio of plasma exposure following oral administration to the intravenous plasma exposure in the rat by the following equation % F=(AUCpo/AUCiv)×(Div/Dpo)×100% where D is the dose and AUC is the area-under-the-plasma-concentration-time-curve from 0 to 24 h. AUC is calculated from the linear trapezoidal rule by AUC=((C2+C1)/2)×(T2−T1) where C is concentration and T is time.
Pharmacokinetic parameters were calculated by a non-compartmental approach. See, for example, Gibaldi, M. and Perrier, D., Pharmacokinetics, Second Edition, 1982, Marcel Dekker Inc., New York, N.Y., pp 409-418.

In another series the test system is A-beta. Description: Efficacy of compounds to inhibit A-beta concentration (% inhibition vs vehicle control). Format: in vivo, rat. The protocol: Efficacious compounds of the present invention are those able to decrease the amount of A-beta produced compared to a control, where beta-secretase mediated cleavage is observed and measured in the absence of the compounds. Detection of efficacy can be by analysis of A-beta levels, for example, by immunoassay, fluorometric or chromogenic assay, HPLC, or other means of detection. The efficacy of the compounds of formula (I) was determined as a percentage inhibition corresponding to A-beta concentrations for tissue treated and untreated with a compound of formula (I).
The invention encompasses compounds of formula (I) that are efficacious. Efficacy is calculated as a percentage of concentrations as follows: Efficacy=(1−(total A-beta in dose group/total A-beta in vehicle control))*100% wherein the “total A-beta in dose group” equals the concentration of A-beta in the tissue, (e.g., rat brain) treated with the compound, and the “total A-beta in vehicle control” equals the concentration of A-beta in the tissue, yielding a % inhibition of A-beta production. Statistical significance is determined by p-value<0.05 using the Mann Whitney t-test. See, for example, Dovey et al., J. Neurochemistry, 2001, 76:173-181. […]

Series [2] relates to catD versus beta-secretase (BACE). As to the kind of experiment: Selectivity for inhibiting BACE over aspartyl protease catD (ratio of IC50 values). The class given is biochemical. The conditions noted are these: average of four experimental runs. The protocol:
Investigation of potential beta-secretase inhibitors produced compounds with increased selectivity for beta-secretase over other aspartyl proteases such as cathepsin D (catD), cathepsin E (catE), HIV protease, and renin. Selectivity was calculated as a ratio of inhibition (IC50) values in which the inhibition of beta-secretase was compared to the inhibition of other aspartyl proteases. […] Alternatively, a compound is selective when its binding affinity is greater for its desired target (e.g., beta-secretase) versus a secondary target (e.g., catD). Accordingly, methods of treatment include administering selective compounds of formula (I) having a lower IC50 value for inhibiting beta-secretase, or greater binding affinity for beta-secretase, than for other aspartyl proteases such as catD, catE, HIV protease, or renin. A selective compound is also capable of producing a higher ratio of desired effects to adverse effects, resulting in a safer method of treatment.
The compounds of formula (I) can be selective for beta-secretase versus catD. […] Selectivity is reported as the ratio of IC50(catD):IC50(BACE).
In the following examples, each value is an average of four experimental runs and multiple values for one compound indicate that more than one experiment was conducted.

Series [3] concerns HEKp293 cells transfected with APP751 containing the Swedish mutation (A-beta). Description: cells. As to conditions: Homo sapiens, read-out: Cell EC50 (nM). The class given is cell-based. From the text:
An exemplary assay for the analysis of inhibition of beta-secretase activity utilizes the human embryonic kidney cell line HEKp293 (ATCC Accession No. CRL-1573) transfected with APP751 containing the naturally occurring double mutation Lys651Met652 to Asn651Leu652 (numbered for APP751), commonly called the Swedish mutation and shown to overproduce A-beta (Citron et al., 1992, Nature, 360:672-674), as described in U.S. Pat. No. 5,604,102.
At the end of the treatment period, conditioned media is analyzed for beta-secretase activity, for example, by analysis of cleavage fragments. A-beta can be analyzed by immunoassay, using specific detection antibodies.

The nature of the next series: in vivo. As to conditions: CF-1, mouse, iv. The protocol:
The following assay was employed to determine the brain penetration of compounds encompassed by the present invention.
In-life phase: Test compounds were administered to CF-1 (20-30 g) mice at 10 μmol/kg (4 to 7 mg/kg) following IV administration in the tail vein. Two time-points, 5 and 60 min, were collected post dose. Four mice were harvested for heparinized plasma and non-perfused brains at each time-point for a total of 8 mice per compound.
Analytical phase: Samples were extracted and evaporated to dryness, then reconstituted and injected onto a reverse phase chromatographic column while monitoring the effluent with a triple quadrupole mass spectrometer. Quantitation was then performed with a 1/x^2 weighted fit of the least-squares regression from calibration standards prepared in parallel with the in vivo samples. The LOQ is generally 1 ng/mL and 0.5 ng/g for the plasma and brain respectively. Data was reported in micromolar (μM) units. Brain levels were corrected for plasma volumes (16 μL/g).

Where [4] appears, read: 100 mg/kg, cortex, inhibition of total A-beta vs vehicle control.
The mark [5] stands for this setting: 100 mg/kg, plasma, inhibition of total A-beta vs vehicle control.

SMILES strings stand for the structures. pEC50: −log10 of the molar value.

BACE, sequence (P56817 46-501): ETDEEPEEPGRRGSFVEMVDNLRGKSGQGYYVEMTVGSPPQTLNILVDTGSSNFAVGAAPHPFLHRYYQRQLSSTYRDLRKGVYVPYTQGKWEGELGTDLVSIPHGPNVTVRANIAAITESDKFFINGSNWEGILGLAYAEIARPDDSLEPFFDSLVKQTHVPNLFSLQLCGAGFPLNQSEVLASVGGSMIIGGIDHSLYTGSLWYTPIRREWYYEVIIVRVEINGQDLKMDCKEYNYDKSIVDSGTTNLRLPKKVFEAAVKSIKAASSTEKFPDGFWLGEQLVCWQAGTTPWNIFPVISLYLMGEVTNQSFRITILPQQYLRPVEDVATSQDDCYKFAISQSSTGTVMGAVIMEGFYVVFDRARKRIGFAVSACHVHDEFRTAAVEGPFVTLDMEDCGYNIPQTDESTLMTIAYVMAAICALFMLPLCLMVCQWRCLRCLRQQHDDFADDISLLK

The term pEC50 denotes the negative decadic logarithm of the EC50, by convention in mol/L. By bioavailability is commonly meant dose-corrected exposure relative to a reference, in per cent. A high value points to much systemic uptake. Turning to `CCc1ccc2c(c1)C(NCC(O)C(Cc1cc(F)cc(F)c1)NC(C)=O)CCC2` (stereo not drawn) [Example 91.11, N-[1-(3,5-Difluoro-benzyl)-3-(7-ethyl-1,2,3,4-tetrahydro-naphthalen-1-ylamino)-2-hydroxy-propyl]-acetamide], the pEC50 on BACE is 6.68. The molecule further showed a bioavailability in series [1] of 14.3%.
As to `CC(=O)NC(Cc1cc(F)cc(F)c1)C(O)CNC1CCCc2ccc(CC(C)(C)C)cc21` (stereo not drawn) [Example 91.1, N-{1-(3,5-Difluoro-benzyl)-3-[7-(2,2-dimethyl-propyl)-1,2,3,4-tetrahydro-naphthalen-1-ylamino]-2-hydroxy-propyl}-acetamide], in the series with A-beta (rat, in vivo), the “Efficacy (% Inhibition, 100 mg/kg) cortex” value is reported as 47% and the “Efficacy (% Inhibition, 100 mg/kg) plasma” value is recorded as 63%. Moreover, at BACE, the pEC50 was 8.05. In series [1], the bioavailability came out at 15%.
Take `CC(=O)NC(Cc1cc(F)cc(F)c1)C(O)CNC1CCNc2ccc(CC(C)(C)C)cc21` (single isomer, unassigned) [91.4 Diastereomer B]: in the series with A-beta (setting [4]), the “Efficacy (% Inhibition, 100 mg/kg) cortex” value is 18%. In the series with A-beta (setting [5]), the “Efficacy (% Inhibition, 100 mg/kg) plasma” value worked out at 59%.
On to `CC(C)(C)Cc1ccc2c(c1)C(NCC(O)C(Cc1cc(F)cc(F)c1)NC(=O)CF)CCC2` (stereo not drawn) [Example 91.3, N-{1-(3,5-Difluoro-benzyl)-3-[7-(2,2-dimethyl-propyl)-1,2,3,4-tetrahydro-naphthalen-1-ylamino]-2-hydroxy-propyl}-2-fluoro-acetamide], for which the “Efficacy (% Inhibition, 100 mg/kg) cortex” value with A-beta (setting [4]) is given as 14%. Also, the “Efficacy (% Inhibition, 100 mg/kg) plasma” value in the series on A-beta (setting [5]) was 23%.
`CCc1ccc2c(c1)C(NCC(O)C(Cc1cc(F)cc(F)c1)NC(C)=O)CCN2` (stereo not drawn) [Example 91.7, N-[1-(3,5-Difluoro-benzyl)-3-(6-ethyl-1,2,3,4-tetrahydro-quinolin-4-ylamino)-2-hydroxy-propyl]-acetamide]: in series [2], the “Selectivity IC50 catD/ IC50 BACE” value is reported as 2.1.
In the case of `CCc1cc(CC(C)(C)C)cc2c1CCCC2NCC(O)C(Cc1cc(F)cc(F)c1)NC(C)=O` (single isomer, unassigned) [91.2 Diastereomer A], in the series with A-beta (setting [4]), the “Efficacy (% Inhibition, 100 mg/kg) cortex” value was found to be 44%. The “Efficacy (% Inhibition, 100 mg/kg) plasma” value in the series with A-beta (setting [5]) is given as 57%.
The EC50 is the concentration that produces a half-maximal response. On to `CC(=O)NC(Cc1cc(F)cc(F)c1)C(O)CNC1CCNc2ccc(CC(C)(C)C)cc21` (single isomer, unassigned) [91.10 Diastereomer B], for which, on BACE, the pEC50 is 6.72. In addition, the EC50 in series [3] was found to be 13 nM. The bioavailability in series [1] worked out at 5%.
`CC(=O)NC(Cc1cc(F)cc(F)c1)C(O)CNC1c2cc(CC(C)(C)C)ccc2CCC1CO` (stereo not drawn) [Example 91.6, N-{1-(3,5-Difluoro-benzyl)-3-[7-(2,2-dimethyl-propyl)-2-hydroxymethyl-1,2,3,4-tetrahydro-naphthalen-1-ylamino]-2-hydroxy-propyl}-acetamide]: the “Selectivity IC50 catD/ IC50 BACE” value in series [2] worked out at 4.4.
Consider `CCc1cc(CC(C)(C)C)cc2c1CCCC2NCC(O)C(Cc1cc(F)cc(F)c1)NC(C)=O` (single isomer, unassigned) [91.8 Diastereomer A], for which, at BACE, the pEC50 is 7.92. Moreover, in series [3], the EC50 turned out to be 32 nM. This molecule yielded a bioavailability in series [1] of 23.3%.
Consider `CCc1ccc2c(c1)C(NCC(O)C(Cc1cc(F)cc(F)c1)NC(C)=O)CCC2` (single isomer, unassigned) [91.5 Diastereomer A], for which the “Efficacy (% Inhibition, 100 mg/kg) cortex” value in the series with A-beta (setting [4]) was found to be 35%. The “Efficacy (% Inhibition, 100 mg/kg) plasma” value in the series with A-beta (setting [5]) came to 44%.
On to `CC(C)(C)NC(=O)[C@@H]1CN(Cc2cccnc2)CCN1C[C@@H](O)C[C@@H](Cc1ccccc1)C(=O)N[C@H]1c2ccccc2C[C@H]1O` [Indinavir], for which, in “in vivo”, the concentration at 5 min was 165 nM and the concentration at 60 min worked out at 11 nM.

The values above are taken from patent US20050239832A1, “Methods of treatment of amyloidosis using bi-cyclic aspartyl protease inhibitors” (priority 2004, published 2005).
